US12606528B2, “Methods and materials for inhibiting NF-kB activity” (University of Pittsburgh - Of the Commonwealth System of …, priority 2019, dated 2026)
Like-named read-outs stand apart in the source and are kept apart here.

Assays:
NF-κB = NF-κB assay: THP1-NF-κB-LUC cells, LPS-stimulated secreted luciferase; assay type: cell-based; conditions: THP1-NF-κB-LUC cells, read-out: IC50 (NF-κB assay)
Method in brief: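 THP1-NF-κB-LUC cells (25k/well) were pretreated with compounds for 2 h, then stimulated with LPS (10 ng/mL) for 18 h. Secreted luciferase was measured and normalized to vehicle, and IC50 was fitted from the concentration series.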

TNF release = experiment: TNF assay: TNF release from LPS-stimulated human PBMCs (TNF ELISA); assay type: cell-based; conditions: PBMC, read-out: IC50 (TNF assay)
Method in brief: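 Human PBMCs at 10k/well pretreated with compound dilutions 2 h, then stimulated with LPS (10 ng/mL) for 18 h. TNF in supernatants quantified by ELISA; IC50 for inhibition of TNF release fitted from concentration–response.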

[1] = compounds 2 hours before LPS (10 ng/mL) for 18 hours, secreted luciferase
[2] = human PBMCs, compounds 2 hours before LPS (10 ng/ml) for 18 hours, supernatant TNF ELISA
[3] = LPS-stimulated human PBMCs, TNF ELISA

SMILES | IC50 (NF-κB; [1]) [µM] | IC50 (TNF release; [2]) [µM] | IC50 (NF-κB; LPS-stimulated) [µM] | IC50 (TNF release; [3]) [µM]
CCNS(=O)(=O)c1cc(Cl)cc2c1OC(C)C(=O)N2 (stereo not drawn) [BC19294] | 1 to 10 | > 10 | – | –
CC(=O)N1CC(=O)Nc2ccc(S(=O)(=O)N3CCCC3)cc21 [BC19295] | – | – | < 0.1 | > 10
CC1C(=O)Nc2ccc(S(=O)(=O)N3CCCC3)cc2N1C (stereo not drawn) [BC19296] | – | – | 1 to 10 | > 10
CC1C(=O)Nc2ccc(S(=O)(=O)N3CCCC3)cc2N1C(=O)N1CCOCC1 (stereo not drawn) [BC19297] | – | – | 1 to 10 | > 10
CC(C)NC(=O)N1c2cc(S(=O)(=O)N3CCCC3)ccc2NC(=O)C1C (stereo not drawn) [BC19298] | – | – | < 0.1 | > 10
COCCNC(=O)N1c2cc(S(=O)(=O)N3CCCC3)ccc2NC(=O)C1C (stereo not drawn) [BC19299] | – | – | 1 to 10 | > 10
NS(=O)(=O)c1ccc2c(c1)N1CCCC1C(=O)N2 (stereo not drawn) [BC19300] | – | – | 0.1 to 1 | > 10
Cc1nnc(-c2ccc3nc(-c4ccc(F)cc4)c(-c4ccc(F)cc4)nc3c2)n1C [BC19301] | – | – | < 0.1 | > 10
Cn1cc(-c2ccc3nc(-c4ccc(F)cc4)c(-c4ccc(F)cc4)nc3c2)cn1 [BC19302] | – | – | 1 to 10 | > 10
COc1ncc(-c2ccc3nc(-c4ccc(F)cc4)c(-c4ccc(F)cc4)nc3c2)cc1F [BC19303] | – | – | > 10 | > 10
Cc1ccncc1-c1ccc2nc(-c3ccc(F)cc3)c(-c3ccc(F)cc3)nc2c1 [BC19304] | – | – | 1 to 10 | > 10
Cn1ncc2c(-c3ccc4nc(-c5ccc(F)cc5)c(-c5ccc(F)cc5)nc4c3)cccc21 [BC19305] | – | – | > 10 | > 10
Fc1ccc(-c2nc3ccc(-c4nncn4CCN4CCOCC4)cc3nc2-c2ccc(F)cc2)cc1 [BC19306] | – | – | 0.1 to 1 | > 10
Cc1ccc(S(=O)(=O)c2nc3cc(C(=O)N4CCN(C)CC4)ccc3nc2-c2ccc(F)cc2)cc1F [BC19307] | – | – | 0.1 to 1 | < 0.1
Cc1ccc(S(=O)(=O)c2nc3cc(C(=O)N4CCN(C)CC4)ccc3nc2-c2ccc(F)cc2)cc1 [BC19308] | – | – | 0.1 to 1 | < 0.1
CN1CCC(C(=O)Nc2ccc3nc(-c4ccc(F)cc4)c(-c4ccc(F)cc4)nc3c2)CC1 [BC19309] | – | – | 0.1 to 1 | 1 to 10
CC(=O)N1CCC(C(=O)Nc2ccc3nc(-c4ccc(F)cc4)c(-c4ccc(F)cc4)nc3c2)CC1 [BC19310] | – | – | < 0.1 | > 10

SMILES | IC50 (NF-κB; [1]) [µM] | IC50 (TNF release; [2]) [µM] | IC50 (NF-κB; LPS-stimulated) [µM] | IC50 (TNF release; [3]) [µM]
CNC(=O)N1CCC(C(=O)Nc2ccc3nc(-c4ccc(F)cc4)c(-c4ccc(F)cc4)nc3c2)CC1 [BC19311] | – | – | < 0.1 | > 10
CS(=O)(=O)N1CCC(C(=O)Nc2ccc3nc(-c4ccc(F)cc4)c(-c4ccc(F)cc4)nc3c2)CC1 [BC19312] | – | – | < 0.1 | 1 to 10
C=CC(=O)Nc1ccc2nc(-c3ccc(F)cc3)c(-c3ccc(F)cc3)nc2c1 [BC19313] | – | – | 0.1 to 1 | 1 to 10
CC#CC(=O)Nc1ccc2nc(-c3ccc(F)cc3)c(-c3ccc(F)cc3)nc2c1 [BC19314] | – | – | < 0.1 | 1 to 10
C[C@H](Cl)C(=O)Nc1ccc2nc(-c3ccc(F)cc3)c(-c3ccc(F)cc3)nc2c1 [BC19315] | – | – | 0.1 to 1 | > 10
CN1CCN(C(=O)c2ccc3nc(-c4ccc(F)cc4)c(-c4ccc(C#N)cc4)nc3c2)CC1 [BC19316] | – | – | 0.1 to 1 | > 10
CN1CCN(C(=O)c2ccc3nc(-c4ccc(F)cc4)c(-c4ccc(Cl)cc4)nc3c2)CC1 [BC19317] | – | – | < 0.1 | > 10
CN1CCN(C(=O)c2ccc3nc(-c4ccc(F)cc4)c(-c4ccc(F)cc4F)nc3c2)CC1 [BC19318] | – | – | < 0.1 | > 10
CCc1ccc(-c2nc3cc(C(=O)N4CCN(C)CC4)ccc3nc2-c2ccc(F)cc2)cc1 [BC19319] | – | – | 1 to 10 | > 10
O=C(O)c1cccc2nc(-c3ccc(F)cc3)c(-c3ccc(F)cc3)nc12 [BC19320] | – | – | > 10 | > 10
C#CCNC(=O)c1cccc2nc(-c3ccc(F)cc3)c(-c3ccc(F)cc3)nc12 [BC19321] | – | – | 1 to 10 | > 10
Cc1ccc(S(=O)(=O)c2c(O)[nH]c3ncccc3c2=O)cc1F [BC19322] | 1 to 10 | > 10 | – | –
O=c1c(S(=O)(=O)c2ccc(F)cc2)c(O)[nH]c2ncccc12 [BC19323] | > 10 | > 10 | – | –
Nc1cccc2cc(S(=O)(=O)c3ccccc3)cnc12 [BC19324] | > 10 | 0.1 to 1 | – | –
CNc1cccc2cc(S(=O)(=O)c3ccccc3)cnc12 [BC19325] | > 10 | 1 to 10 | – | –
CN(C)c1cccc2cc(S(=O)(=O)c3ccccc3)cnc12 [BC19326] | > 10 | 1 to 10 | – | –
